The mass density is mass per unit of volume.

One compound from the NIST ThermoML archive (doi:10.1016/j.fluid.2012.04.003) can be followed below.

± gives the expanded uncertainty stated by the source.

The series in a line: wn = mass fraction of the nth substance listed. The note with it: 101 kPa, Liquid, Vibrating tube method.

For `[Cl-].[Na+]` [sodium chloride] + O, the mass density (293.15 K, w1 = 0.02) worked out at 1012.4 ± 0.8 kg/m3; the mass density (293.15 K, w1 = 0.04) turned out to be 1026.7 ± 0.8 kg/m3; the mass density (303.15 K, w1 = 0.02) is recorded as 1012.4 ± 0.8 kg/m3; the mass density (303.15 K, w1 = 0.04) was 1026.7 ± 0.8 kg/m3; the mass density (313.15 K, w1 = 0.02) stood at 1006.1 ± 0.8 kg/m3.
